Measured values reported in US9303033B2, “Pyrazolopyrimidines and related heterocycles as CK2 inhibitors” (SENHWA BIOSCIENCES, INC., priority 2009, dated 2016).
Like-named read-outs stand apart in the source and are kept apart here.

How the values were obtained:
recombinant PIM-1 = recombinant PIM-1 (Homo sapiens (Human), UniProt P11309); assay: PIM-1 assay (33P-ATP filter binding); type: biochemical; settings: read-out: PIM1: IC50 (30 μM ATP)
Method: (SEQ ID NO.: 5), 10 mM MgAcetate, 15 uM ATP, [γ-^33P-ATP] (specific activity approx. 500 cpm/pmol), DMSO 4% and test inhibitor compound at the required concentration. The reaction was initiated by the addition of the Magnesium ATP mixture. After 40 min incubation at 23° C., the reactions were quenched by the addition of 100 ul 0.75% Phosphoric acid, and the labeled peptide collected by filtration through a phosphocellulose filter plate. The plate was washed 4 times with 0.075% phosphoric acid (100 ul per well) and then, after the addition of scintillation fluid (20 ul per well), the counts were measured by a scintillation counter.

[1] = test system: BxPC3 human pancreatic adenocarcinoma cells; assay: Cell proliferation assay with Alamar Blue (AB), BxPC3; type: cell-based
Method in brief: (§1)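 4,000–5,000 cells per well were exposed to compound for four days at 37° C, 5% CO2. Alamar Blue was then added for four hours, and fluorescence was read at 544 nm excitation / 590 nm emission.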

recombinant human PIM2 = recombinant human PIM2 (Homo sapiens (Human), UniProt Q9P1W9); assay: PIM-2 assay (33P-ATP filter binding); type: biochemical; settings: for IC50: PIM2: IC50 (5 μM ATP), 5 μM ATP; for PIM2: % inh […]: at […] compound
Method: Test compounds dissolved and diluted in DMSO (2 μl) were added to a reaction mixture comprising 10 μl of 5× Reaction Buffer (40 mM MOPS pH 7.0, 5 mM EDTA), 10 μl of recombinant human PIM2 solution (4 ng PIM-2 dissolved in dilution buffer (20 mM MOPS pH 7.0; EDTA 1 mM; 5% Glycerol; 0.01% Brij 35; 0.1%; 0.1% 2-mercaptoethanol; 1 mg/ml BSA)) and 8 ul of water.

CK2 ααββ = CK2 ααββ (Homo sapiens (Human), UniProt P68400); assay: CK2 assay (cell-free, 33P-ATP, phosphocellulose filter plate); type: biochemical
Method: Modulatory activity of compounds described herein was assessed in vitro in cell-free CK2 assays by the following method.
Reactions were maintained for 40 min at 23° C. The reactions were quenched with 100 ul of 0.75% Phosphoric acid, then transferred to and filtered through a Phosphocellulose filter plate (Millipore, MSPH-N6B-50). After washing each well 4 times with 0.75% Phosphoric acid, scintillation fluid (20 uL) was added to each well and the residual radioactivity was measured using a Wallac luminescence counter.

MDAMB453 = assay: Cell proliferation assay with Alamar Blue (AB), MDAMB453; type: cell-based
Method in brief: as §1

[2] = Homo sapiens, BXPC-3, read-out: AB: BxPC3
[3] = Homo sapiens, MDA-MB-453, MDAMB453 cells, read-out: AB: MDAMB453
[4] = MDAMB453 cells, read-out: AB: MDAMB453 IC50

CK2 ααββ, sequence (P68400 whole entry): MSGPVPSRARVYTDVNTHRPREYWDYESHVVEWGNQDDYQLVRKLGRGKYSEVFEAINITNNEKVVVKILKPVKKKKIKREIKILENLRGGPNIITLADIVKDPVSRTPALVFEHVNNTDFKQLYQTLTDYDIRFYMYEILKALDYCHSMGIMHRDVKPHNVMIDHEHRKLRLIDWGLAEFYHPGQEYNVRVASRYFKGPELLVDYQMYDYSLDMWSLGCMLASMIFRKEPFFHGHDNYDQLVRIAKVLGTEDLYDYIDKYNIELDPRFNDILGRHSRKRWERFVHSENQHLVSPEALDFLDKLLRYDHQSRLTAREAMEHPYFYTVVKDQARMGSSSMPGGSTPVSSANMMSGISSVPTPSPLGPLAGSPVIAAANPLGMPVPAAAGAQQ
CK2 ααββ, sequence (P67870 whole entry partner): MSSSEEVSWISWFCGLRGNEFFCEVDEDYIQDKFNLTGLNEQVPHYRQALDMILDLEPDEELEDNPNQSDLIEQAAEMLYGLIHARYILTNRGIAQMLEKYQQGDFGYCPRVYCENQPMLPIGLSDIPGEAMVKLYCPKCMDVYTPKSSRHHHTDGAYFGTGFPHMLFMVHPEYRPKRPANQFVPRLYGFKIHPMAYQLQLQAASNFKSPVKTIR
recombinant PIM-1, sequence (P11309 whole entry): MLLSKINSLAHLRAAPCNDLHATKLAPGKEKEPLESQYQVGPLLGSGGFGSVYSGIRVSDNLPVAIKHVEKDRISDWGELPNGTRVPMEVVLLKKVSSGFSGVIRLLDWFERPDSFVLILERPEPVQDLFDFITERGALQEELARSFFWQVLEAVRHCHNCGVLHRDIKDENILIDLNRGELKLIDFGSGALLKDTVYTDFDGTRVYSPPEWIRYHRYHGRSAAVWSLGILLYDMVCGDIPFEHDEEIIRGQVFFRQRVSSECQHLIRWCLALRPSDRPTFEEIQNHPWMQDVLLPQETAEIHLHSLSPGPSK
recombinant human PIM2, sequence (Q9P1W9 whole entry): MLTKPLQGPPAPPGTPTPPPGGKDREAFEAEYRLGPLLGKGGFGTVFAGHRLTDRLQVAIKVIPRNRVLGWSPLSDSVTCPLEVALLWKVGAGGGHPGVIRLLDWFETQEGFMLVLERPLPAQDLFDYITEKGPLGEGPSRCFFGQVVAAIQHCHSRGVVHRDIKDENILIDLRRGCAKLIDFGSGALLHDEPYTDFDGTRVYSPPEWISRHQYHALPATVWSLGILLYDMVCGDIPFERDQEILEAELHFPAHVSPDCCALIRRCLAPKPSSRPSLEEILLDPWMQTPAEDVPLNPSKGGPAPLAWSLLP

SMILES	IC50 (recombinant PIM-1) [nM]	IC50 [1, 2] [nM]	IC50 (recombinant human PIM2) [nM]	IC50 (CK2 ααββ) [nM]	IC50 (MDAMB453; [3]) [nM]	IC50 ([1]; read-out: AB: BxPC3 IC50) [nM]	PIM2: % inh […] (recombinant human PIM2) [%]	IC50 (MDAMB453; [4]) [nM]
CCN1CCCC1CNc1cc(NC2CC2)n2ncc(/C=C3\SC(=O)NC3=O)c2n1 (stereo not drawn) [Example G3]	2060	9450	1850	< 100	7700	–	–	–
CCN(CC)c1cc(NC2CC2)n2ncc(/C=C3\SC(=O)NC3=O)c2n1 [Example L3]	> 2500	–	1430	< 1000	–	–	–	–
O=C1NC(=O)/C(=C/c2cnn3c(NC4CC4)cc(Nc4cccc(Cl)c4)nc23)S1 [Example J3]	> 2500	–	> 2500	< 1000	–	–	–	–
CC(O)CNc1cc(NC2CC2)n2ncc(/C=C3\SC(=O)NC3=O)c2n1 (stereo not drawn) [Example H3]	2390	–	> 2500	< 1000	–	–	–	–
CN(C)c1cc(NC2CC2)n2ncc(/C=C3\SC(=O)NC3=O)c2n1 [Example I3]	> 2500	–	876	< 100	–	–	–	–
O=C1NC(=O)/C(=C/c2cnn3c(NC4CC4)cc(NCCF)nc23)S1 [Example N3]	> 2500	–	> 2500	< 1000	–	–	–	–
CC(C)CNc1cc(NC2CC2)n2ncc(/C=C3\SC(=O)NC3=O)c2n1 [Example F3]	2060	–	1640	< 1000	–	–	–	–
CN1CCC(N(C)c2cc(NC3CC3)n3ncc(/C=C4\SC(=O)NC4=O)c3n2)C1 (stereo not drawn) [Example M3]	1450	–	1440	< 100	–	–	–	–
COC(=O)c1cccc(-c2cc(NC3CC3)n3ncc(/C=C4\NC(=O)NC4=O)c3n2)c1 [Example W3]	–	2050	> 2500	< 10	1710	–	–	–
CCCS(=O)(=O)Nc1cccc(-c2cc(NC3CC3)n3ncc(/C=C4\NC(=O)NC4=O)c3n2)c1 [Example T4]	–	2740	> 2500	< 100	1710	–	–	–
O=C1NC(=O)/C(=C/c2cnn3c(NC4CC4)cc(NCC4CC4)nc23)N1 [Example T2]	–	6900	998	< 10	2490	–	–	–
O=C1NC(=O)C(=Cc2cnn3c(NC4CC4)cc(Nc4ccc(OCCN5CCOCC5)c(Cl)c4)nc23)N1 [Example U42]	–	–	–	< 10	–	2460	48.912	1090
O=C1NC(=O)/C(=C/c2cnn3c(NC4CC4)cc(-c4cccc(CO)c4)nc23)N1 [Example V3]	–	5170	649	< 10	477	–	–	–
O=C1NC(=O)/C(=C/c2cnn3c(NC4CC4)cc(Nc4cccc(F)c4)nc23)N1 [Example D1]	–	4070	2200	< 10	1340	–	–	–
CC(C)(C)OC(=O)c1cccc(Nc2cc(Nc3cccc(Cl)c3)nc3c(/C=C4\NC(=O)NC4=O)cnn23)c1 [Example B7]	–	10200	> 2500	< 10	7770	–	–	–
O=C1NC(=O)/C(=C/c2cnn3c(NC4CC4)cc(N4CCOCC4)nc23)S1 [Example K3]	918	–	1390	< 1000	–	–	–	–
Cc1c(Nc2ccc(-n3cccn3)cc2)nc2c(/C=C3\NC(=O)NC3=O)cnn2c1NC1CC1 [Example E46]	–	–	–	< 100	–	20900	49.545	16600
O=C1NC(=O)/C(=C/c2cnn3c(NC4CC4)cc(NC4CCCC4)nc23)N1 [Example O2]	–	10400	> 2500	< 10	4510	–	–	–
NC(=O)c1cccc(-c2cc(NC3CC3)n3ncc(/C=C4\NC(=O)NC4=O)c3n2)c1 [Example U3]	–	3680	> 2500	< 10	3740	–	–	–
CN1C(=O)S/C(=C\c2cnn3c(NC4CC4)cc(Nc4cccc(Cl)c4)nc23)C1=O [Example P3]	> 2500	–	> 2500	< 1000	–	–	–	–
